Assay results published in article PMC11933534, “Favipiravir induces HuNoV viral mutagenesis and infectivity loss with clinical improvement in immunocompromised patients” (Clinical Immunology (Orlando, Fla.), 2024).

Assays:
Format in all cases: in vivo
HuNoV GII.4 Sydney[P16] = test: Antiviral treatment of HuNoV-infected zebrafish larvae (viral RNA by RT-qPCR)
Procedure: (§1) First, compounds were dissolved in 100% DMSO (spectroscopy grade). To determine the correct dose for pericardial injections in zebrafish larvae of all compounds (i.e. favipiravir, tizoxanide and their 1:1 combination), a weight-dependent conversion was applied. For this purpose, the optimized and increased clinical dose of 400 mg favipiravir TDS and 200 mg tizoxanide BD was used. To ensure the weight-converted dose was not toxic for zebrafish larvae of 3 days post fertilization, a toxicity analysis was performed. […] The following parameters were investigated: touch response, morphology, posture, oedema, signs of necrosis, swim bladder and heartbeat.
Zebrafish larvae were anesthetized and positioned as described previously, in short: zebrafish larvae of 3 days post fertilization were anesthetized and transferred to an agarose mold to position them on their dorsal side with the yolk facing upward. In every experiment, the injection needle was calibrated to ensure the precision of the injection volume. Microinjection was performed using an M3301R Manual Micromanipulator (WPI, Friedberg, Germany) and a FemtoJet 4i pressure microinjector (Eppendorf, Hamburg, Germany). Compound-treated zebrafish larvae received a 1 nL (1.5 nL in case of the combination treatment) injection of compound in the pericardial cavity, while negative control zebrafish were injected with an equal volume of DMSO. Subsequently, the zebrafish larvae received an injection of 3 nL virus in the yolk. After both injections, zebrafish larvae were transferred to 6-well plates with Danieau's solution and further maintained in an incubator with a 14/10 h light/dark cycle at 32 °C.
Zebrafish larvae were homogenized (Precellys 24, Bertin Technologies, Montigny-le-Bretonneux, France), the homogenates were cleared by centrifugation (5 min, 9000 g), and RNA was extracted using the Direct-zol RNA kit (Zymo Research, Irvine, CA, USA), according to the manufacturer's protocol. RNA levels were quantified with a one-step RT-qPCR (iTaq Universal Probes One-Step Kit, Bio-Rad, Hercules, CA, USA) as previously described.

zebrafish larvae = test: Toxicity analysis in zebrafish larvae
Procedure: as §1

IRF-1 = test: Innate immune gene expression in HuNoV-infected zebrafish larvae: IRF-1; conditions: tizoxanide 4 ng; HuNoV GII.4 Sydney[P16]; day 2 pi; p = 0.023
Procedure: (§2) To generate the cDNA, the ImProm-II Reverse Transcription System (Promega, Madison, WI, USA) was used. Briefly, a total of 1 μg (ca. 8 μL) of extracted RNA was added to 2 μL of random hexamers and incubated at 70 °C for 5 min, followed by 5 min at 4 °C. To this reaction mix a total volume of 30 μL containing 8 μL of Improm II 5× reaction buffer, 6 mM MgCl2, 0.5 mM deoxynucleoside triphosphate, 40 units of RNase inhibitor, 2 μL of Improm II reverse transcriptase, followed by an incubation at 25 °C for 5 min, 37 °C for 1 h, and 72 °C for 15 min. A qPCR was performed with 4 μL template cDNA using the SsoAdvanced Universal SYBR green supermix, 600 nM of forward and reverse primers for IRF-1, Mx and the housekeeping genes 18 s, β-actin, and ef1a. Primer sequences were as previously described [[65], [66], [67], [68]]. Cycling conditions were as follows; polymerase activation at 95 °C for 3 min followed by 40 cycles of denaturation at 95 °C for 15 s, annealing at 55 °C and extension at 72 °C for 30 s (Quantstudio 5, ThermoFisher Scientific, Waltham, MA, USA). Data was normalized to the housekeeping genes and compared to DMSO-injected zebrafish larvae infected with HuNoV to determine the fold induction of the expression, according to the Livak method.

Mx = test: Innate immune gene expression in HuNoV-infected zebrafish larvae: Mx; conditions: tizoxanide 4 ng; HuNoV GII.4 Sydney[P16]; day 2 pi; p = 0.0403
Procedure: as §2

Structure (SMILES): O=C(Nc1ncc([N+](=O)[O-])s1)c1ccccc1O [tizoxanide]
- Reduction of HuNoV replication (HuNoV GII.4 Sydney[P16]; monotherapy favipiravir 25 ng or tizoxanide 4 ng, in-house GII.4 Sydney[P16] stool sample, peak 2 dpi, p = 0.0006 and 0.001): > 1 log10
- Effect on HuNoV replication (HuNoV GII.4 Sydney[P16]; tizoxanide 4 ng alone, inoculum SS A, p > 0.05): no significant effect
- Toxicity in the zebrafish larval model (zebrafish larvae; 25 ng favipiravir or 4 ng tizoxanide, drug administered alone): did not show toxicity
- Toxicity in the zebrafish larval model (zebrafish larvae; tizoxanide 6 ng): signs of toxicity, including heart oedema, necrosis and spine curvature
- Fold increase in IRF-1 expression vs untreated (DMSO) infected larvae (IRF-1): 4 fold
- Fold increase in Mx expression vs untreated (DMSO) infected larvae (Mx): 9 fold
